Test results published in patent US8017612B2, “Piperazine compound and use thereof as a HCV polymerase inhibitor” (priority 2006, dated 2011).

Assays:
[1] = biological target: T1, HCV polymerase (NS5B) type 1a (Hepatitis C virus genotype 1a, UniProt P26664); test: Assay of enzyme (HCV polymerase) inhibitory activity, type 1a enzyme; format: biochemical, HCV type 1a (cloned from the blood of patients); settings: HCV polymerase inhibitory activity IC50, 1a, type 1a enzyme
T1 construct: made in house; host or cells: Escherichia coli (by the 'similar method' of the 1b enzyme)
In short: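 IC50 values derive from radioactivity of newly synthesized RNA with versus without test compound. The enzyme was C-terminally truncated type 1a NS5B, 1.5 μg/ml, run 60 min at 25° C with 3H-UTP-labelled nucleotides.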

[2] = biological target: T2, HCV polymerase (NS5B) type 1b (Hepatitis C virus genotype 1b, UniProt P26663); test: Assay of enzyme (HCV polymerase) inhibitory activity, type 1b enzyme; format: biochemical, HCV BK strain (type 1b); settings: HCV polymerase inhibitory activity IC50, 1b, type 1b enzyme
T2 construct: a region encoding NS5B (J Virol 1991 March, 65(3), 1105-13, 544 amino acids after deletion of 47 amino acids on the C-terminal); 6xHis (C); made in house; host or cells: Escherichia coli
In short: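 Polymerase activity was followed as radiolabelled UTP incorporation by E. coli-expressed, His-tagged NS5B of HCV type 1b lacking its last 47 residues. Conditions: 2 μM UTP, 50 μM other NTPs, Mg2+ buffer at pH 7.5, 25 °C for 60 min. Inhibition relative to compound-free reactions gave IC50.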

O=C(O)c1ncc2sc(N3CCN(S(=O)(=O)c4ccc(OC(F)(F)F)cc4)[C@@H](C(=O)NCc4ccc(OC(F)(F)F)cc4)C3)nc2n1 [Example 1033, 2-[(R)-4-(4-trifluoromethoxy-benzenesulfonyl)-3-(4-trifluoromethoxy-benzylcarbamoyl)-piperazin-1-yl]-thiazolo[4,5-d]pyrimidine-5-carboxylic acid] was tested, and the IC50 [1] was less than 100 nM and the IC50 [2] was less than 100 nM.
Work on Nc1nnnc2nc(N3CCN(S(=O)(=O)c4ccc(OC(F)(F)F)cc4)[C@@H](C(=O)NCc4ccc(OC(F)(F)F)cc4)C3)sc12 [Example 1034, (R)-4-(4-amino-thiazolo[4,5-d][1,2,3]triazin-6-yl)-1-(4-trifluoromethoxy-benzenesulfonyl)-piperazine-2-carboxylic acid 4-trifluoromethoxy-benzylamide] yielded an IC50 [1] of less than 100 nM and an IC50 [2] of less than 100 nM.
COc1nnnc2nc(N3CCN(S(=O)(=O)c4ccc(OC(F)(F)F)cc4)[C@@H](C(=O)NCc4ccc(OC(F)(F)F)cc4)C3)sc12 [Example 1035, (R)-4-(4-methoxy-thiazolo[4,5-d][1,2,3]triazin-6-yl)-1-(4-trifluoromethoxy-benzenesulfonyl)-piperazine-2-carboxylic acid 4-trifluoromethoxy-benzylamide] was tested, and the IC50 [1] was less than 100 nM and the IC50 [2] was less than 100 nM.
N#Cc1ncc2sc(N3CCN(S(=O)(=O)c4ccc(OC(F)(F)F)cc4)[C@@H](C(=O)NCc4ccc(OC(F)F)cc4)C3)nc2n1 [Example 1036, (R)-4-(5-cyano-thiazolo[4,5-d]pyrimidin-2-yl)-1-(4-trifluoromethoxy-benzenesulfonyl)-piperazine-2-carboxylic acid 4-difluoromethoxy-benzylamide] was tested, and the IC50 [1] was less than 100 nM and the IC50 [2] was less than 100 nM.
Molecule CCn1ncc2sc(N3CCN(S(=O)(=O)c4ccc(C(F)(F)F)cc4)[C@@H](C(=O)NCc4ccc(OC(F)(F)F)cc4)C3)nc2c1=O [Example 1037, (R)-4-(5-ethyl-4-oxo-4,5-dihydro-thiazolo[4,5-d]pyridazin-2-yl)-1-(4-trifluoromethyl-benzenesulfonyl)-piperazine-2-carboxylic acid 4-trifluoromethoxy-benzylamide] has an IC50 [1] of less than 100 nM and an IC50 [2] of less than 100 nM.
Molecule O=C(NCc1ccc(OC(F)(F)F)cc1)[C@H]1CN(c2nn3c(=O)cc(C(F)(F)F)nc3s2)CCN1S(=O)(=O)c1ccc(OC(F)(F)F)cc1 [Example 1038, (R)-4-(5-oxo-7-trifluoromethyl-5H-[1,3,4]thiadiazolo[3,2-a]pyrimidin-2-yl)-1-(4-trifluoromethoxy-benzenesulfonyl)-piperazine-2-carboxylic acid 4-trifluoromethoxy-benzylamide] has an IC50 [1] of 100 to 1000 nM and an IC50 [2] of 100 to 1000 nM.
In the case of Cc1ncc2sc(N3CCN(S(=O)(=O)c4ccc(OC(F)(F)C(F)F)cc4)[C@@H](C(=O)NCc4ccc(OC(F)F)cc4)C3)nc2n1 [Example 1039, (R)-4-(5-methyl-thiazolo[4,5-d]pyrimidin-2-yl)-1-[4-(1,1,2,2-tetrafluoro-ethoxy)-benzenesulfonyl]-piperazine-2-carboxylic acid 4-difluoromethoxy-benzylamide], the IC50 [1] is reported as less than 100 nM and the IC50 [2] is reported as less than 100 nM.
O=C(NCc1ccc(OC(F)F)cc1F)[C@H]1CN(c2nc3nc(C4CC4)ncc3s2)CCN1S(=O)(=O)c1ccc(C(F)(F)F)cc1 [Example 1040, (R)-4-(5-cyclopropyl-thiazolo[4,5-d]pyrimidin-2-yl)-1-(4-trifluoromethyl-benzenesulfonyl)-piperazine-2-carboxylic acid 4-difluoromethoxy-2-fluoro-benzylamide] was tested, and the IC50 [1] was less than 100 nM and the IC50 [2] was less than 100 nM.
For CN(C)C(=O)c1ncc2sc(N3CCN(S(=O)(=O)c4ccc(OC(F)(F)F)cc4)[C@@H](C(=O)NCc4ccc(OC(F)(F)F)cc4)C3)nc2n1 [Example 1041, 2-[(R)-4-(4-trifluoromethoxy-benzenesulfonyl)-3-(4-trifluoromethoxy-benzylcarbamoyl)-piperazin-1-yl]-thiazolo[4,5-d]pyrimidine-5-carboxylic acid dimethylamide], the IC50 [1] was less than 100 nM and the IC50 [2] was less than 100 nM.
O=C(NCc1ccc(OC(F)F)cc1F)[C@H]1CN(c2nc3nc(C(F)(F)F)ncc3s2)CCN1S(=O)(=O)c1ccc(C(F)(F)F)cc1 [Example 1042, (R)-1-(4-trifluoromethyl-benzenesulfonyl)-4-(5-trifluoromethyl-thiazolo[4,5-d]pyrimidin-2-yl)-piperazine-2-carboxylic acid 4-difluoromethoxy-2-fluoro-benzylamide] showed an IC50 [1] of less than 100 nM and an IC50 [2] of less than 100 nM.
COCc1ncc2sc(N3CCN(S(=O)(=O)c4ccc(OC(F)(F)F)cc4)[C@@H](C(=O)NCc4ccc(OC(F)(F)F)cc4)C3)nc2n1 [Example 1043, (R)-4-(5-methoxymethyl-thiazolo[4,5-d]pyrimidin-2-yl)-1-(4-trifluoromethoxy-benzenesulfonyl)-piperazine-2-carboxylic acid 4-trifluoromethoxy-benzylamide] was tested, and the IC50 [1] was less than 100 nM and the IC50 [2] was less than 100 nM.
O=C(NCc1ccc(OC(F)F)cc1F)[C@H]1CN(c2nc3nc(C(F)(F)F)ncc3s2)CCN1S(=O)(=O)c1ccc(OC(F)(F)F)cc1 [Example 1044, (R)-1-(4-trifluoromethoxy-benzenesulfonyl)-4-(5-trifluoromethyl-thiazolo[4,5-d]pyrimidin-2-yl)-piperazine-2-carboxylic acid 4-difluoromethoxy-2-fluoro-benzylamide] was tested, and the IC50 [1] was less than 100 nM and the IC50 [2] was less than 100 nM.
O=C(NCc1ccc(OC(F)F)cc1F)[C@H]1CN(c2nc3nc(C4CC4)ncc3s2)CCN1S(=O)(=O)c1ccc(OC(F)(F)F)cc1 [Example 1045, (R)-4-(5-cyclopropyl-thiazolo[4,5-d]pyrimidin-2-yl)-1-(4-trifluoromethoxy-benzenesulfonyl)-piperazine-2-carboxylic acid 4-difluoromethoxy-2-fluoro-benzylamide] showed an IC50 [1] of less than 100 nM and an IC50 [2] of less than 100 nM.
CNC(=O)c1ncc2sc(N3CCN(S(=O)(=O)c4ccc(OC(F)(F)F)cc4)[C@@H](C(=O)NCc4ccc(OC(F)(F)F)cc4)C3)nc2n1 [Example 1046, 2-[(R)-4-(4-trifluoromethoxy-benzenesulfonyl)-3-(4-trifluoromethoxy-benzylcarbamoyl)-piperazin-1-yl]-thiazolo[4,5-d]pyrimidine-5-carboxylic acid methylamide] was tested, and the IC50 [1] was less than 100 nM and the IC50 [2] was less than 100 nM.
With CC(C)(O)c1ncc2sc(N3CCN(S(=O)(=O)c4ccc(OC(F)(F)F)cc4)[C@@H](C(=O)NCc4ccc(OC(F)(F)F)cc4)C3)nc2n1 [Example 1047, (R)-4-[5-(1-hydroxy-1-methyl-ethyl)-thiazolo[4,5-d]pyrimidin-2-yl]-1-(4-trifluoromethoxy-benzenesulfonyl)-piperazine-2-carboxylic acid 4-trifluoromethoxy-benzylamide] the IC50 [1] was less than 100 nM and the IC50 [2] was less than 100 nM.
Work on CC(=O)c1ncc2sc(N3CCN(S(=O)(=O)c4ccc(OC(F)(F)F)cc4)[C@@H](C(=O)NCc4ccc(OC(F)(F)F)cc4)C3)nc2n1 [Example 1048, (R)-4-(5-acetyl-thiazolo[4,5-d]pyrimidin-2-yl)-1-(4-trifluoromethoxy-benzenesulfonyl)-piperazine-2-carboxylic acid 4-trifluoromethoxy-benzylamide] yielded an IC50 [1] of less than 100 nM and an IC50 [2] of less than 100 nM.
